Experimental data reported in US9526739B2, “Compositions and methods to treat cardiac diseases” (University of Connecticut, priority 2010, dated 2016).
“And” between values parts separate entries of the source, which are not always exact repeats. Equal values may be shown once. “Also recorded” adds a separate entry of the source. Values belong to the compound of their own block, whether it stands above or below them.

Assays:
[1] = system: CSQ heart failure mice; assay: Echocardiography-derived fractional shortening in CSQ heart failure mice after 28 days of subcutaneous minipump infusion; type: in vivo, mouse; settings: for cardioprotection in the CSQ model (in words) / effect on echocardiography-derived FS / cardiac contractile function versus normal saline (in words): 3.3 μM, 28 days of infusion, CSQ mice; for FS in % in CSQ Mice: at 3.3 μM, subcutaneous Alzet minipump infusion, 28 days, vehicle control 13.78 ± 1.19% (n = 16)
From the text: Two of the phosphonates, 4 and 9, were able to cause an improved FS as compared to vehicle (FIG. 1, Table 1) and in comparison to the reference nucleotide 3. […] Thus, in the saturated phosphonate series, the orientation of the phosphorous relative to the methanocarba ring was somewhat structurally permissive, although inclusion of an olefin in the spacer prevented the cardioprotective action. In 11, one OH group of the phosphonate has been replaced with CH3. This reduces the overall charge on the molecule and is intended to make it more bioavailable. Evidently, the binding site of the receptor requires both oxygens for the most favorable improvement in FS. Therefore, as summarized in FIG. 1, the most significant improvement in FS was associated with the saturated homologues containing a 2-Cl substitution and an unmodified phosphonate group, 4 and 9.
Compound 3 and its analogues were dissolved in phosphate-buffered saline, pH=7.4 at 3.3 μM (200 μL total volume), filtered for sterility for in vivo administration at 6 μL per day for 28 days via a mini-osmotic pump (Alzet) in the CSQ mice. Intact heart function in vivo was assessed by echocardiography following infusion of nucleotide- or vehicle

[2] = Stability in aqueous medium at pH 1.5 (simulated stomach acid); type: physicochemical; settings: pH 1.5, over 24 hours
From the text: (§1) The synthetic nucleotide analogue 3 activates the native cardiac P2X receptor, as indicated in electrophysiological experiments with normal cardiac myocytes and those that overexpress CSQ and based on its in vivo ability to improve the heart failure phenotype of these animals. The rigid carbocyclic ring system contained in this derivative stabilizes nucleotides toward the action of nucleotidases. […] In the present study, we have synthesized fully hydrolysis-resistant adenosine monophosphate derivatives based on phosphonate linkages.

[3] = Hydrolysis on incubation at 37° C. with mammalian cell membranes (1321N1 astrocytoma cells); type: in vitro ADME; settings: 1321N1 astrocytoma cell membranes
From the text: as §1
Further, the 5′-phosphate 3 and the prodrug 9a (MRS2944) are stable to acidic conditions representative of stomach acid (pH 1.5). […] Without being held to theory, it is believed that the prodrug approach will allow the masked drug to pass through the stomach to be absorbed intact in the intestines, and for the charged phosphoryl group to remain intact until the free drug reaches the site of action in the heart. Therefore, the stable phosphonates would be suitable in this scheme. The cleavage of the prodrug derivatives is to occur in circulation prior to reaching the tissue site of action, because intracellular internalization would be undesirable. Therefore, many of the prodrug schemes that aim for penetration of the masked drug into the cells, i.e. for antiviral or anticancer application of nucleotide derivatives, would likely not be suitable here.

[4] = system: CSQ heart failure mice; assay: Echocardiography (FS, LV wall thickness) in CSQ heart failure mice after 14 days of infusion; settings: for cardioprotection in CSQ mice (in words) / effect on LV fractional shortening versus normal saline (in words): 14 days (two-week) infusion; for FS in % in CSQ Mice: at 10μM, 14 days of infusion, vehicle control 7.13 ± 1.49% (n = 4), phenotypically more severe CSQ mice than in Table 1; for prevention of LV wall thinning in heart failure (in words): two-week infusion
[5] = system: control 1321N1 astrocytoma cells; assay: Intracellular Ca2+ response in control 1321N1 astrocytoma cells; type: cell-based, human; settings: 10 μM, untransfected control 1321N1 astrocytoma cells
[6] = system: mouse cardiac myocytes; settings: voltage clamp; cited from earlier work
[7] = biological target: T1, human P2Y1 receptor (Homo sapiens, UniProt P47900); assay: FLIPR assay of calcium flux in 1321N1 astrocytoma cells stably expressing the human P2Y1 receptor; type: cell-based
T1 construct: T. K. Harden, University of North Carolina School of Medicine; host or cells: 1321N1 human astrocytoma cells
T1 sequence (P47900 whole entry): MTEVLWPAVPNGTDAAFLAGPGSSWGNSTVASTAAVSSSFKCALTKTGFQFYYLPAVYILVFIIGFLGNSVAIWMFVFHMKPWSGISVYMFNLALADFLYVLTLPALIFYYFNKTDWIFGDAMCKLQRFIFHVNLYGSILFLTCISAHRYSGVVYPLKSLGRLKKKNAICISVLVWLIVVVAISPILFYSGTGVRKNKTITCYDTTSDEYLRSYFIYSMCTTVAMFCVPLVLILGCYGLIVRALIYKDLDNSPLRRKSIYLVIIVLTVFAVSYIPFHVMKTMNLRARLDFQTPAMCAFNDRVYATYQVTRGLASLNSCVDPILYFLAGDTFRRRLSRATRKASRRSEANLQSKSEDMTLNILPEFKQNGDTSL

[8] = biological target: T2, hP2Y1 receptor (Homo sapiens, UniProt P47900); settings: initial characterization, previously reported; read-out: EC50, hP2Y1 receptor agonist, PLC; cited from earlier work
T2 construct: host or cells: said to be the same cell line as the calcium assay (1321N1 astrocytoma cells expressing hP2Y1)
T2 sequence (P47900 whole entry): as above

[9] = system: aorta ring preparations; settings: cited from earlier work
[10] = system: CSQ myocyte; settings: similar to that by compound 1, characteristic of the P2X4 receptor; cited from earlier work
[11] = system: CSQ-overexpressing mouse; settings: cited from earlier work
[12] = 2-week infusion, CSQ mice, NS-infused 0.450±0.007 mm, P<0.05

SMILES: Nc1ncnc2c1ncn2[C@H]1[C@H](O)[C@H](O)C2(/C=C/P(=O)(O)O)C[C@H]12 (stereo partly drawn) [Compound 8, (1′S,2′R,3′S,4′R,5′S)-4′-(6-Aminopurin-9-yl)-2′,3′-(dihydroxy)-1′-[(E)-phosphonoethenyl]-bicyclo[3.1.0]hexane]
cardioprotection in the CSQ model (in words) [1]: not protective
effect on echocardiography-derived FS / cardiac contractile function versus normal saline (in words) [1]: lower FS values
FS in % in CSQ Mice [1]: 13.88 ± 2.12%

SMILES: CCOP(=O)(CC12C[C@@H]1[C@@H](n1cnc3c(N)nc(Cl)nc31)[C@H](O)[C@@H]2O)OCC (stereo partly drawn) [Compound 9a, Diethyl-(1′S,2′R,3′S,4′R,5′S)-4′-(6-amino-2-chloropurin-9-yl)-2′,3′-(hydroxy)-bicyclo[3.1.0]hexane phosphonate]
stability to acidic conditions [2]: stable
hydrolysis in the presence of mammalian cell membranes [3]: considerable hydrolysis
cardioprotection in CSQ mice (in words) ([4]; CSQ mice): not protective
effect on LV fractional shortening versus normal saline (in words) ([4]; CSQ mice): did not improve FS
FS in % in CSQ Mice [4]: 8.58 ± 2.09%
prevention of LV wall thinning in heart failure (in words) ([4]; CSQ mice): did not improve FS or prevent LV wall thinning

SMILES: CSc1nc(N)c2ncn([C@@H]3O[C@H](COP(=O)(O)OP(=O)(O)O)[C@@H](O)[C@H]3O)c2n1 [Compound 2-MeSADP, 2-MeSADP]
change in intracellular Ca2+ in control cells [5]: no change in intracellular Ca^2+

SMILES: Nc1nc(Cl)nc2c1ncn2[C@H]1[C@H](O)[C@H](O)C2(CCP(=O)(O)O)C[C@H]12 (stereo partly drawn) [Compound 9]
cardioprotection in the CSQ model (in words) [1]: clearly protective in vivo
effect on echocardiography-derived FS / cardiac contractile function versus normal saline (in words) [1]: improved FS; also recorded: able to enhance cardiac contractile function
FS in % in CSQ Mice [1]: 19.26% and 19.26 ± 1.23%

SMILES: Nc1nc(Cl)nc2c1ncn2[C@H]1[C@H](O)[C@H](O)C2(CSP(=O)(O)O)C[C@H]12 (stereo partly drawn) [Compound 4a]
LV posterior wall thickness [4, 12]: 0.493±0.016 mm
LV septal wall thickness [4, 12]: 0.492±0.012 mm
cardioprotection in CSQ mice (in words) ([4]; CSQ mice): could protect the CSQ mice
FS in % in CSQ Mice [4]: 14.33 ± 3.77%

SMILES: Nc1nc(I)nc2c1ncn2[C@H]1[C@H](O)[C@H](O)C2(CP(=O)(O)O)C[C@H]12 (stereo partly drawn) [Compound 7a, (1′S,2′R,3′S,4′R,5′S)-4′-(6-Amino-2-iodoropurin-9-yl)-2′,3′-(dihydroxy)-1′-(phosphonomethylene)-bicyclo[3.1.0]hexane]
cardioprotection in CSQ mice (in words) ([4]; CSQ mice): abolished protection; also recorded: not protective
effect on LV fractional shortening versus normal saline (in words) ([4]; CSQ mice): did not improve FS; also recorded: lower FS values
FS in % in CSQ Mice [4]: 10.33 ± 1.77%
prevention of LV wall thinning in heart failure (in words) ([4]; CSQ mice): did not improve FS or prevent LV wall thinning

SMILES: Nc1ncnc2c1ncn2[C@H]1[C@H](O)[C@H](O)C2(CP(=O)(O)O)C[C@H]12 (stereo partly drawn) [Compound 5, (1′S,2′R,3′S,4′R,5′S)-4′-(6-Aminopurin-9-yl)-2′,3′-(dihydroxy)-1′-(phosphonomethylene)-bicyclo[3.1.0]hexane]
FS in % in CSQ Mice [1]: 16.23 ± 0.93%

SMILES: Nc1nc(Cl)nc2c1ncn2[C@H]1[C@H](O)[C@H](O)C2(CP(=O)(O)O)C[C@H]12 (stereo partly drawn) [Compound 4, (1′S,2′R,3′S,4′R,5′S)-4′-(6-Amino-2-chloropurin-9-yl)-2′,3′-(dihydroxy)-1′-(phosphonomethylene)-bicyclo[3.1.0]hexane]
cardioprotection in the CSQ model (in words) [1]: active
effect on echocardiography-derived FS / cardiac contractile function versus normal saline (in words) [1]: increased shortening of both the septum and left ventricular (LV) free wall; also recorded: able to improve in vivo cardiac contractile performance; also recorded: improved echocardiographically derived FS
FS in % in CSQ Mice [1]: 20.25% and 20.25 ± 1.19%

SMILES: CNc1nc(I)nc2c1ncn2[C@H]1C[C@H](OP(=O)(O)O)[C@]2(COP(=O)(O)O)C[C@H]12 [MRS2500]
block of the membrane current evoked by 3 [6]: could not block the membrane current evoked by 3

SMILES: Nc1nc(Cl)nc2c1ncn2[C@H]1[C@H](O)[C@H](O)C2(/C=C/P(=O)(O)O)C[C@H]12 (stereo partly drawn) [Compound 7, (1′S,2′R,3′S,4′R,5′S)-4′-(6-Amino-2-chloropurin-9-yl)-2′,3′-(dihydroxy)-1′-[(E)-phosphonoethenyl]-bicyclo[3.1.0]-hexane]
cardioprotection in the CSQ model (in words) [1]: not protective
effect on echocardiography-derived FS / cardiac contractile function versus normal saline (in words) [1]: lower FS values
FS in % in CSQ Mice [1]: 12.12 ± 1.2%
effect on LV fractional shortening versus normal saline (in words) ([4]; CSQ mice): did not improve FS
prevention of LV wall thinning in heart failure (in words) ([4]; CSQ mice): did not improve FS or prevent LV wall thinning

SMILES: CP(=O)(O)CC12C[C@@H]1[C@@H](n1cnc3c(N)nc(Cl)nc31)[C@H](O)[C@@H]2O (stereo partly drawn) [Compound 11, (1′S,2′R,3′S,4′R,5′S)-4′-(6-Amino-2-chloropurin-9-yl)-2′,3′-dihydroxy-1′-(methylphosphonicacid)-bicyclo[3.1.0]hexane]
effect on echocardiography-derived FS / cardiac contractile function versus normal saline (in words) [1]: lower FS values
FS in % in CSQ Mice [1]: 15.0 ± 1.2%

SMILES: Nc1ncnc2c1ncn2[C@H]1[C@H](O)[C@H](O)C2(CCP(=O)(O)O)C[C@H]12 (stereo partly drawn) [Compound 10]
cardioprotection in the CSQ model (in words) [1]: not protective
effect on echocardiography-derived FS / cardiac contractile function versus normal saline (in words) [1]: lower FS values; also recorded: did not improve the contractile function
FS in % in CSQ Mice [1]: 11.15 ± 1.44%

Emax ([7]; 1321-N1, read-out: maximal effect relative to the full agonist 2-MeSADP, hP2Y1 calcium flux): ~80%
EC50 ([7]; 1321N1 cells stably expressing hP2Y1, FLIPR-Tetra, n=3, read-out: EC50, Ca2+ flux, hP2Y1 receptor): 722 ± 55 nM
stability to acidic conditions [2]: stable
hydrolysis in the presence of mammalian cell membranes [3]: considerable hydrolysis
SMILES: Nc1nc(Cl)nc2c1ncn2[C@H]1[C@H](O)[C@H](O)C2(COP(=O)(O)O)C[C@H]12 (stereo partly drawn) [Compound 3, (1′S, 2′R,3′S,4′R,5′S)-4-(6-amino-2-chloro-9H-purin-9-yl)-1-[phosphoryloxymethyl]bicyclo[3.1.0]hexane-2,3-diol]
FS in % in CSQ Mice [1]: 15.47 ± 1.15%
EC50 [8]: 1890 nM
vasodilator action [9]: inability to dilate aortic rings; also recorded: devoid of any vasodilator action
current in the CSQ myocyte [10]: induced a current
longevity compared to vehicle-injected mice ([11]; Alzet mini-osmotic pump): significantly increased longevity
cross-section area of the cardiac myocytes ([11]; chronic administration): decreases
heart weight/body weight ratio ([11]; chronic administration): decreases
hypertrophic and heart failure phenotype ([11]; chronically administered): rescued the hypertrophic and heart failure phenotype
